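Test compounds were applied to cells in 96-well plates for 48 hours at 5 doses. TGI marks complete inhibition of growth.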
Tests used:
Experiment in all cases: NCI-60 cell line screen, 48 h
[1] = system: MOLT-4 leukemia
[2] = system: DLD-1 colon
[3] = system: SK-OV-3 ovarian
[4] = system: CCRF-CEM leukemia
[5] = system: SK-MEL-28 melanoma
[6] = system: SF-268 CNS
[7] = system: U251 CNS
[8] = system: EKVX NSCLC
[9] = system: SF-295 CNS
[10] = system: OVCAR-8 ovarian
[11] = system: UACC-62 melanoma
[12] = system: HOP-18 NSCLC
[13] = system: HT29 colon
[14] = system: HOP-62 NSCLC
[15] = system: CAKI-1 renal
[16] = system: K-562 leukemia
[17] = system: SW-620 colon
[18] = system: KM12 colon
[19] = system: HOP-92 NSCLC
[20] = system: NCI-H460 lung
[21] = system: HL-60(TB) leukemia
[22] = system: SR leukemia
[23] = system: OVCAR-3 ovarian
[24] = system: SN12C renal
[25] = system: MALME-3M melanoma
[26] = system: HCT-116 colon
[27] = system: NCI-H226 lung
[28] = system: SF-539 CNS
[29] = system: A549 NSCLC
[30] = system: 786-0 renal
[31] = system: RPMI-8226 leukemia
[32] = system: OVCAR-4 ovarian
[33] = system: SK-MEL-2 melanoma
[34] = system: IGROV1 ovarian
[35] = system: LOX IMVI melanoma
[36] = system: SNB-19 CNS
[37] = system: SNB-75 CNS
[38] = system: TK-10 renal
[39] = system: UO-31 renal
[40] = system: OVCAR-5 ovarian
[41] = system: LXFL 529 NSCLC
[42] = system: HCT-15 colon
[43] = system: XF 498 CNS
[44] = system: SK-MEL-5 melanoma
[45] = system: NCI-H522 lung
[46] = system: M14 melanoma
[47] = system: NCI-H23 lung
[48] = system: ACHN renal
[49] = system: M19-MEL melanoma
[50] = system: SNB-78 CNS
[51] = system: COLO 205 colon
[52] = system: RXF 393 renal
[53] = system: KM20L2 colon
[54] = system: A498 renal
[55] = system: DMS 114 small cell lung
[56] = system: HCC-2998 colon
[57] = system: DMS 273 small cell lung
[58] = system: UACC-257 melanoma

SMILES: Brc1ccc(C2SCc3nc4ccccc4n32)cc1 (centres undefined)
- TGI [1]: > 100 µM
- TGI [2]: 22.3 µM
- TGI [3]: 37.7 µM
- TGI [4]: > 100 µM
- TGI [5]: 16.7 µM
- TGI [6]: 32.9 µM
- TGI [7]: 25.2 µM
- TGI [8]: 33.8 µM
- TGI [9]: 24.8 µM
- TGI [10]: 26.6 µM
- TGI [11]: 21.1 µM
- TGI [12]: 78.5 µM
- TGI [13]: 20.9 µM
- TGI [14]: 22.4 µM
- TGI [15]: 43 µM
- TGI [16]: > 100 µM
- TGI [17]: 29.2 µM
- TGI [18]: 21.1 µM
- TGI [19]: 9.66 µM
- TGI [20]: 27.3 µM
- TGI [21]: 12.4 µM
- TGI [22]: 28.3 µM
- TGI [23]: 17 µM
- TGI [24]: 27.7 µM
- TGI [25]: 30.2 µM
- TGI [26]: 19.6 µM
- TGI [27]: 34.1 µM
- TGI [28]: 34.3 µM
- TGI [29]: > 100 µM
- TGI [30]: 26 µM
- TGI [31]: 28.6 µM
- TGI [32]: 27.4 µM
- TGI [33]: 30.4 µM
- TGI [34]: 27.3 µM
- TGI [35]: 21 µM
- TGI [36]: 9.02 µM
- TGI [37]: 0.745 µM
- TGI [38]: 29.1 µM
- TGI [39]: 32 µM
- TGI [40]: 25.2 µM
- TGI [41]: 22.2 µM
- TGI [42]: 24.3 µM
- TGI [43]: 24.5 µM
- TGI [44]: 12.5 µM
- TGI [45]: 12.4 µM
- TGI [46]: 25.5 µM
- TGI [47]: 15.3 µM
- TGI [48]: 40.2 µM
- TGI [49]: 27 µM
- TGI [50]: 22.5 µM
- TGI [51]: 27.3 µM
- TGI [52]: 20.9 µM

SMILES: Cc1ccc2c(CC(=O)O)cc(=O)oc2c1
- TGI [1]: > 100 µM
- TGI [2]: > 100 µM
- TGI [3]: > 100 µM
- TGI [4]: > 100 µM
- TGI [5]: > 100 µM
- TGI [6]: > 100 µM
- TGI [7]: > 100 µM
- TGI [8]: > 100 µM
- TGI [9]: > 100 µM
- TGI [10]: > 100 µM
- TGI [53]: > 100 µM
- TGI [11]: > 100 µM
- TGI [12]: > 100 µM
- TGI [13]: > 100 µM
- TGI [14]: > 100 µM
- TGI [15]: > 100 µM
- TGI [54]: > 100 µM
- TGI [16]: > 100 µM
- TGI [17]: > 100 µM
- TGI [18]: > 100 µM
- TGI [19]: > 100 µM
- TGI [20]: > 100 µM
- TGI [21]: > 100 µM
- TGI [23]: > 100 µM
- TGI [24]: > 100 µM
- TGI [25]: > 100 µM
- TGI [26]: > 100 µM
- TGI [27]: > 100 µM
- TGI [28]: > 100 µM
- TGI [29]: > 100 µM
- TGI [30]: > 100 µM
- TGI [31]: > 100 µM
- TGI [32]: > 100 µM
- TGI [33]: > 100 µM
- TGI [34]: > 100 µM
- TGI [55]: > 100 µM
- TGI [35]: > 100 µM
- TGI [36]: > 100 µM
- TGI [37]: > 100 µM
- TGI [38]: > 100 µM
- TGI [40]: > 100 µM
- TGI [41]: > 100 µM
- TGI [42]: > 100 µM
- TGI [56]: > 100 µM
- TGI [43]: 9.18 µM
- TGI [44]: > 100 µM
- TGI [45]: > 100 µM
- TGI [46]: > 100 µM
- TGI [47]: > 100 µM
- TGI [48]: > 100 µM
- TGI [49]: > 100 µM
- TGI [57]: > 100 µM
- TGI [51]: > 100 µM
- TGI [52]: > 100 µM

SMILES: O=C(NC(=O)c1cc2cc(Br)cc(Br)c2oc1=O)Oc1ccccc1
- TGI [1]: > 100 µM
- TGI [2]: > 100 µM
- TGI [3]: > 100 µM
- TGI [4]: > 100 µM
- TGI [5]: > 100 µM
- TGI [6]: > 100 µM
- TGI [7]: > 100 µM
- TGI [8]: > 100 µM
- TGI [9]: > 100 µM
- TGI [10]: > 100 µM
- TGI [53]: > 100 µM
- TGI [11]: > 100 µM
- TGI [12]: > 100 µM
- TGI [13]: > 100 µM
- TGI [14]: > 100 µM
- TGI [15]: > 100 µM
- TGI [54]: > 100 µM
- TGI [16]: > 100 µM
- TGI [17]: > 100 µM
- TGI [18]: > 100 µM
- TGI [19]: > 100 µM
- TGI [20]: > 100 µM
- TGI [23]: > 100 µM
- TGI [24]: > 100 µM
- TGI [25]: > 100 µM
- TGI [26]: > 100 µM
- TGI [27]: > 100 µM
- TGI [28]: > 100 µM
- TGI [29]: > 100 µM
- TGI [30]: > 100 µM
- TGI [31]: > 100 µM
- TGI [32]: > 100 µM
- TGI [34]: > 100 µM
- TGI [55]: > 100 µM
- TGI [35]: > 100 µM
- TGI [36]: > 100 µM
- TGI [37]: 33.6 µM
- TGI [38]: > 100 µM
- TGI [58]: > 100 µM
- TGI [39]: > 100 µM
- TGI [40]: > 100 µM
- TGI [41]: > 100 µM
- TGI [42]: > 100 µM
- TGI [56]: > 100 µM
- TGI [43]: > 100 µM
- TGI [44]: > 100 µM
- TGI [46]: > 100 µM
- TGI [47]: > 100 µM
- TGI [48]: 72 µM
- TGI [49]: > 100 µM
- TGI [57]: > 100 µM
- TGI [50]: > 100 µM
- TGI [51]: > 100 µM
- TGI [52]: 83.3 µM

SMILES: Cn1c(=O)c2nc(NCCO)cnc2n(C)c1=O
- TGI [1]: > 100 µM
- TGI [2]: > 100 µM
- TGI [3]: > 100 µM
- TGI [4]: > 100 µM
- TGI [5]: > 100 µM
- TGI [6]: > 100 µM
- TGI [7]: > 100 µM
- TGI [8]: > 100 µM
- TGI [9]: > 100 µM
- TGI [10]: > 100 µM
- TGI [53]: > 100 µM
- TGI [11]: > 100 µM
- TGI [13]: > 100 µM
- TGI [14]: > 100 µM
- TGI [15]: > 100 µM
- TGI [54]: > 100 µM
- TGI [16]: > 100 µM
- TGI [17]: > 100 µM
- TGI [18]: > 100 µM
- TGI [19]: > 100 µM
- TGI [20]: > 100 µM
- TGI [21]: 76.9 µM
- TGI [22]: > 100 µM
- TGI [23]: 57.9 µM
- TGI [24]: > 100 µM
- TGI [25]: > 100 µM
- TGI [26]: > 100 µM
- TGI [28]: 88.7 µM
- TGI [29]: > 100 µM
- TGI [31]: > 100 µM
- TGI [32]: > 100 µM
- TGI [33]: > 100 µM
- TGI [34]: > 100 µM
- TGI [55]: > 100 µM
- TGI [36]: > 100 µM
- TGI [37]: 42.4 µM
- TGI [38]: > 100 µM
- TGI [58]: > 100 µM
- TGI [39]: > 100 µM
- TGI [40]: > 100 µM
- TGI [41]: > 100 µM
- TGI [42]: > 100 µM
- TGI [56]: > 100 µM
- TGI [43]: > 100 µM
- TGI [44]: > 100 µM
- TGI [45]: 46.4 µM
- TGI [46]: > 100 µM
- TGI [47]: > 100 µM
- TGI [48]: > 100 µM
- TGI [49]: > 100 µM
- TGI [57]: > 100 µM
- TGI [50]: > 100 µM
- TGI [51]: > 100 µM
- TGI [52]: 81.5 µM

From PubChem BioAssay (NCI)
